In US11325937B2, “Glycoside compound and preparation method therefor, composition, application, and intermediate” (SHANGHAI HUTCHISON PHARMACEUTICALS LIMITED, priority 2018, dated 2022):

Test system: VEGF-A mRNA expression in macrophages (RAW264.7)
Experiment: In vitro macrophage experiment: activity of compounds to promote VEGF-A mRNA expression (RT-qPCR)
Type: cell-based
Settings: Mus musculus, RAW264.7 macrophages, 3 h, no drug = 1, read-out: Expression level of VEGF-A mRNA; for fold induction at 1 µM: relative expression 2^-ΔΔCt; for fold induction at 100 µM: 0.1 mM; for fold induction at 100 µM / fold induction at 500 µM / fold induction at 1000 µM / fold induction at 2000 µM / fold induction at 3000 µM: relative expression; for fold induction at 500 µM: 0.5 mM; for fold induction at 1000 µM: 1 mM; for fold induction at 2000 µM: 2 mM; for fold induction at 3000 µM: 3 mM
Description: 1.1. Specific steps for activity screening: 1-10×10^6 macrophages (RAW264.7) in logarithmic growth phase were transferred to a cell culture plate. The test compounds (Compounds TG-001, TG-002, TG-003, TG-004, TG-005, TG-006, TG-007, TG-008, TG-009, TG-010, TG-011, TG-012, TG-013, TG-014, TG-015, TG-016, TG-017, TG-018, TG-019, TG-020, TG-021, TG-022, TG-023, TG-024, TG-025, TG-026, TG-027, TG-028, TG-029, TG-030, TG-031, TG-032, TG-033, TG-034, TG-035, TG-036, TG-037, TG-045, TG-039, TG-040 TG-041, TG-042, TG-043, TG-044, TG-045, TG-052, TG-053, TG-054, TG-047, TG-048, TG-046, TG-049, TG-050, TG-051, TG-055 and TG-056) were respectively diluted into various concentrations, and separately added to the cell culture plate containing macrophage. The cells were cultured for 3 h in a complete medium (RPMI 1640 medium:fetal bovine serum:tri-resistance screening agent (i.e. penicillin-streptomycin-gentamicin, Beijing Leagene Biotechnology Co., Ltd.)=89:10:1 based on volume) in a cell incubator at 37° C. and 5% CO2. The cells were lyzed by Trizol (Beijing ComWin Biotech Co., Ltd) to extract RNA, and the RNA concentration was measured using a microvolume nucleic acid and protein analyzer (Nanodrop2000c). The required volume V of RNA was calculated according to the RNA concentration, and the RNA reverse transcription reaction system was prepared according to Table 1. Then RNA reverse transcription (cDNA synthesis) (RT Easy™ I (For first-strand cDNA synthesis) Reverse Transcription Kit, Chengdu ForeGene Biotechnology Co., Ltd.) was carried out according to the conditions described in Table 2. The resulting cDNA was used to prepare a fluorescence quantitative PCR reaction solution according to Table 3. The fluorescence quantitative PCR reaction conditions were set according to Table 4, and the fluorescence quantitative PCR reaction (Real time PCR Easy™-SYBR Green Fluorescence Quantification Kit, Chengdu ForeGene Biotechnology Co., Ltd.) was performed using cDNA from the reverse transcription reaction as a template. The relative expression level 2^−ΔΔCt of the target gene was calculated from the Ct value of each sample with the blank control group as a control and β-Actin as an internal reference.
Based on the maximum level of VEGF-A mRNA expression promoted by a drug at a certain concentration, the activity of the drug was determined. The expression level of VEGF-A mRNA in macrophages was defined as 1 when no drug was added. Using a traditional Chinese medicine injection Salvianolate that is used in the treatment of Cardio-cerebrovascular disease and promotes a maximum level of VEGF-A mRNA expression of 6 in macrophages (the results are shown in Table 5) as a judgment standard, the compound promoting a maximum level of VEGF-A mRNA expression of 4 or more in macrophage was a target compound. That is, when the maximum level of VEGF-A mRNA expression in macrophages promoted by the test compound is over 4-fold higher than the expression level of VEGF-A mRNA in macrophages without the addition of the test compound, the test compound was a preliminary target compound promoting angiogenesis.

Compound | fold induction at 1 µM | fold induction at 100 µM | fold induction at 500 µM | fold induction at 1000 µM | fold induction at 2000 µM | fold induction at 3000 µM
OC[C@H]1O[C@@H](OCCCCc2ccc(OCC3COC3)cc2)[C@H](O)[C@@H](O)[C@@H]1O [TG-025] | 1.62 | 1.78 | 1.43 | 2.15 | 9.69 | 2.06
COc1ccc(CCCCO[C@H]2O[C@H](CO)[C@@H](O)[C@H](O)[C@H]2O)cc1 [TG-046] | 1.86 | 1.96 | 2.14 | 2.27 | 2.25 | 5.32
COc1ccc(CCCCCO[C@@H]2O[C@H](CO)[C@@H](O)[C@H](O)[C@H]2O)cc1 [TG-005] | 0.91 | 0.36 | 2.64 | 1.15 | 1.3 | 2.39
CC(C)(C)COc1ccc(CCCCO[C@@H]2O[C@H](CO)[C@@H](O)[C@H](O)[C@H]2O)cc1 [TG-041] | 0.62 | 0.84 | 1.97 | 8.17 | 0.16 | 0.23
OC[C@H]1O[C@@H](OCCCCc2ccc(OCc3ccccc3F)cc2)[C@H](O)[C@@H](O)[C@@H]1O [TG-050] | 1.27 | 2.81 | 1.85 | 2.16 | 1.74 | 15.1
OC[C@H]1O[C@@H](OCCCCc2ccc(OCc3ccccn3)cc2)[C@H](O)[C@@H](O)[C@@H]1O [TG-022] | 2.31 | 0.91 | 1.43 | 1.68 | 1.89 | 0.66
OC[C@H]1O[C@@H](OCCCCc2ccc(OCc3ccncc3)cc2)[C@H](O)[C@@H](O)[C@@H]1O [TG-019] | 0.74 | 0.72 | 1.03 | 5.2 | 7.03 | 2.92
COCCOCCOCCOCCOc1ccc(CCCCO[C@@H]2O[C@H](CO)[C@@H](O)[C@H](O)[C@H]2O)cc1 [TG-044] | 0.65 | 1.18 | 1.56 | 1.04 | 0.79 | 0.95
OC[C@H]1O[C@@H](OCCCCC2CCCCC2)[C@H](O)[C@@H](O)[C@@H]1O [TG-009] | 1.29 | 1.28 | 0.95 | 1 | 1.61 | 5.94
OC[C@H]1O[C@@H](OCCCCc2ccc(Br)cc2)[C@H](O)[C@@H](O)[C@@H]1O [TG-012] | 1.99 | 2.31 | 3.14 | 0.5 | 2.08 | 4.38
OC[C@H]1O[C@@H](OCCCCc2ccc(OCC3CCC3)cc2)[C@H](O)[C@@H](O)[C@@H]1O [TG-021] | 0.87 | 2.69 | 3.81 | 4.24 | 9.2 | 7.96
